Molecular target: CCK2 receptor (Cavia porcellus, UniProt H0VZC5)
Assay: Guinea-pig gastric corpeal muscle assay (pentagastrin-induced contraction)
Details: isolated guinea-pig gastric corpeal muscle strips, pentagastrin concentration-response curves, CCK1 receptors blocked
Experimental: Guinea-Pig Gastric Corpeal Muscle Assay
CCK2 receptor-mediated muscle contraction was measured in an isolated muscle-strip assay of guinea-pig gastric corpeal muscle according to the methods described by Roberts et al. (S. P. Roberts, E. A. Harper, G. F. Watt, V. P. Gerskowitch, R. A. Hull, N. P. Shankley, and J. W. Black, Br. J. Pharmacol., 1996, 118(7):1779-1789). In brief, strips of muscle were dissected and suspended in isolated tissue organ baths for isotonic muscle contraction recording. The baths, containing Krebs-Henseleit solution, were maintained at […]. and gassed continuously with 95% O2 and 5% CO2. CCK1 receptors known to be present in this assay were blocked using a selective concentration of a suitable CCK1 receptor antagonist (e.g. 2-NAP). The effectiveness of the test compounds was assessed by measuring their effect on contractile concentration-response curves obtained using a well-characterized surrogate for the hormone gastrin (pentagastrin). […]

Sequence of CCK2 receptor (H0VZC5 entry or part of it): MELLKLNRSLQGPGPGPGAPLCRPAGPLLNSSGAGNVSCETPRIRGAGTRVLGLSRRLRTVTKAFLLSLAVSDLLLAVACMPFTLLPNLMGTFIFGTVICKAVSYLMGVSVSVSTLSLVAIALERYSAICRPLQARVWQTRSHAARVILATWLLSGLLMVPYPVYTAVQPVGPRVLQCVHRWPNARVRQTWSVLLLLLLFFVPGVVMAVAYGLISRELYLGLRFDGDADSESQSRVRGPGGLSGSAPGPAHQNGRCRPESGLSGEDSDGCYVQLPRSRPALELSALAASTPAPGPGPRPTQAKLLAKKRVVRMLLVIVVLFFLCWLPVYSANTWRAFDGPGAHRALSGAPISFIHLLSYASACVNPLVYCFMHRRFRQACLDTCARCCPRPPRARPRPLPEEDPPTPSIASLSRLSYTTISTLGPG

behaviour in the assay (mode of antagonism): competitive antagonist
SMILES: C[C@@H](NC(=O)c1ccc(Br)cc1NS(=O)(=O)c1cccc2nccnc12)c1ccc(F)cc1F [Example 2, (R)-4-Bromo-N-[1-(2,4-difluoro-phenyl)-ethyl]-2-(quinoxaline-5-sulfonylamino)-benzamide]

— patent publication US7947833B2, “Preparation of quinoxaline compounds” (Janssen Pharmaceutica NV, priority 2004, dated 2011)
